In US11806555B2, “Methods for treating hair loss disorders” (THE TRUSTEES OF COLUMBIA UNIVERSITY IN THE CITY OF NEW YORK, priority 2010, dated 2023):
Entries after “also recorded” stand apart in the source; their conditions may differ. Read-outs that look alike come from different tables or passages of the source.

Legend:
[1] = rodent; cited from earlier work
[2] = all dose groups; cited from earlier work
[3] = tested on: Th1 and Th17 transcript markers and keratin 16; settings: cited from earlier work
[4] = tested on: epidermal thickening and dermal inflammation; settings: in vivo; cited from earlier work
[5] = Active (n = 149); cited from earlier work
[6] = tested on: telogen hair follicles of normal C57BL/6 mice; experiment: induction of anagen by topical treatment of normal mice in telogen; type: in vivo, mouse; settings: for proliferation in the telogen hair follicle (Ki67) / keratinocyte matrix cells / induction of anagen: vs vehicle; for induction of anagen: topical, mice in telogen
Experimental: 7-8 weeks old animals in telogen were treated with controls or JAK STAT inhibitors.
Right half of each mouse was administered topical drug, left half of each mouse was treated with DMSO alone.
To test whether inhibition of JAK-STAT signaling could therefore trigger the telogen-to-anagen transition, a topical JAK3 inhibitor was applied to test whether anagen could be induced in normal mouse skin in telogen.

human embryonic scalp = experiment: drug treatment of human fetal scalp in vitro, hair follicle morphogenesis; type: cell-based; parameters: dose or concentration left out as unconfirmed; settings: human embryonic scalp at 20 weeks, vs DMSO
Text: Skin was harvested and sectioned and assessed for hair follicle morphology.

[7] = tested on: IL-15 triggered pSTAT3 activation; experiment: IL-15-induced Stat3 activation in T cells; type: cell-based; settings: T cells / CTL effectors
dermal sheath cells = experiment: IL-15-induced LAK cell cytotoxicity against dermal sheath cells; type: cell-based, mouse
Experimental: In vitro cytotoxicity assays. Determination of specific killing of target cells was performed using CFSE-labeled DS cells at targets mixed with different ratios of effector cells incubated for 5 hours at 37° C. 5% CO2 with or without neutralizing rat anti-mouse NKG2D antibody (20 ug/ml) (Biolegend, CX5). Specific lysis of DS cells was determined flow cytometrically by measuring cell death of CFSE+DS cells using Annexin V/7-AAD.

[8] = C3H/HeJ, mouse, in vivo, 10 mg/kg/day
[9] = tested on: alopecia areata in grafted C3H/HeJ mice; settings: for CD8+NKG2D+ T cells in skin and cutaneous lymph nodes: flow cytometry; for ALADIN score / transcriptional signature / GEDI (CTL and IFN signatures): skin; for development / onset of alopecia areata: systemic treatment from time of grafting
Text: Alopecia areata is graded based on severity, location of inflammatory cells, types and relative numbers of inflammatory cells (granulocytes, mast cells, lymphocytes), follicular dystrophy, etc.
Protocol #1: In the prevention setting, recipient mice will be treated beginning the first week after grafting.
Transfer of Alopecia Areata using grafted C3H/HeJ skin. Normal-haired C3H/HeJ mice were grafted at 8 weeks of age (during the second telogen) with skin from a C3H/HeJ mouse that developed AA spontaneously, as described previously^7. In brief, mice spontaneously affected with AA were euthanized, full thickness skin grafts of approximately 2 cm in diameter were removed and grafted to normal-haired C3H/HeJ mice.
Flow cytometric analysis of skin and cutaneous lymph nodes. To make a single cell suspension of mouse skin, fat was removed from the overlying skin in cold PBS and then incubated in collagenase type I (2 mg/ml in PBS) at 32° C. for 75 minutes. After digestion the skin was minced in RPMI/10% fetal bovine serum, filtered through a 70 mM cell strainer, and centrifuged at 1100 g for 5 minutes. The pellet was resuspended in RPMI/10% fetal bovine serum, filtered through a 40 mM cell strainer and spun at 400 g for 5 mins. The pellet was resuspended in FACs buffer (PBS/5% BSA), DAPI to gate on live cells and staining antibodies (listed in Supplemental Data). Cutaneous lymph nodes were pooled minced in RPMI, filtered through a 40 mM cell strainer, centrifuged at 400 g for 5 minutes stained and analysed on a BD LSR II flow cytometer.
Prevention and Treatment Studies. For prevention studies, mice were treatment beginning the day of grafting (n=5-10 mice per group).
(§1) ALADIN scores. The IFN and CTL signatures were used to develop a bivariate score statistic. Individual signature IFN and CTL scores were determined following procedures used in human SLE^,S9,S10. The sets of genes selected to comprise our IFN and CTL signatures were CD8A, GZMB, and ICOS for the CTL signature, and CXCL9, CXCL10, CXCL11, STAT1, and MX1 for the IFN signature. The scores for the prevention mice were calculated in relation to the sham mice; whereas, the scores for the topical treatment experiments were calculated relative to all the samples at week zero.

[10] = tested on: C3H/HeJ mice with long-standing alopecia areata; settings: for hair regrowth / reversal of alopecia areata: systemic (pump), established AA; for CD8+NKG2D+ T cells in skin and cutaneous lymph nodes: flow cytometry
Experimental: (§2) To make a single cell suspension of mouse skin, fat was removed from the overlying skin in cold PBS and then incubated in collagenase type I (2 mg/ml in PBS) at 32° C. for 75 minutes. After digestion the skin was minced in RPMI/10% fetal bovine serum, filtered through a 70 mM cell strainer, and centrifuged at 1100 g for 5 minutes. The pellet was resuspended in RPMI/10% fetal bovine serum, filtered through a 40 mM cell strainer and spun at 400 g for 5 mins. The pellet was resuspended in FACs buffer (PBS/5% BSA), DAPI to gate on live cells and staining antibodies (listed in Supplemental Data). Cutaneous lymph nodes were pooled minced in RPMI, filtered through a 40 mM cell strainer, centrifuged at 400 g for 5 minutes stained and analysed on a BD LSR II flow cytometer.

[11] = tested on: C3H/HeJ mice with long-standing AA; settings: for CD8+NKG2D+ T cells in treated skin: flow cytometry
Experimental: as §2, §1

IL-15 signaling = settings: human whole blood assays; cited from earlier work
[12] = topical vs systemic administration

## N#CCC(C1CCCC1)n1cc(-c2ncnc3[nH]ccc23)cn1 (stereo not drawn) [INCB018424]
[1]
  half-life (t1/2): 3 to 6 h
[2]
  Total Lesion Score, decrease over vehicle: ≥ 2 ×
[3]; psoriasis subjects, topical
  clinical responses: rapid clinical responses
  cutaneous Th1/Th17 cytokine responses: normalization
[3]; topical treatment
  Th1 and Th17 transcript markers and keratin 16: decreased
[4]
  epidermal thickening and dermal inflammation: markedly reduces
  pathological skin thinning: No pathological skin thinning is observed
[5]
  Adverse event: Abdominal pain, number: 3
  Adverse event: Abdominal pain, value in brackets: (2.0)
  Adverse event: Application site irritation, pruritus, number: 14
  Adverse event: Application site irritation, pruritus, value in brackets: (9.3)
  Adverse event: Back Pain, value in brackets: (3.4)
  Adverse event: Headache, number: 4
  Adverse event: Headache, value in brackets: (2.7)
  Adverse event: Influenza, number: 4
  Adverse event: Influenza, value in brackets: (2.7)
  Adverse event: Nasopharyngitis, number: 10
  Adverse event: Nasopharyngitis, value in brackets: (6.7)
  Adverse event: Sinusitis, number: 6
  Adverse event: Sinusitis, value in brackets: (4.0)
  Adverse event: Upper respiratory tract infection, number: 10
  Adverse event: Upper respiratory tract infection, value in brackets: (6.7)

## CNC1CCC(N(Cc2cccc(-c3ccncc3)c2)C(=O)c2sc3ccccc3c2Cl)CC1 (stereo not drawn) [SAG]
[6]; post treatment
  time to induction of anagen: 4 to 7 days
[6]
  proliferation in the telogen hair follicle (Ki67) / keratinocyte matrix cells: marked proliferation

## CC1CCN(C(=O)CC#N)CC1N(C)c1ncnc2[nH]ccc12 (stereo not drawn) [tofacitinib]
[6]; 1% daily for 3 weeks
  durability of effect: more than 1 month
[6]; mouse, in vivo
  number of hair follicles vs vehicle treated: greater
  thickness of hair follicles vs vehicle treated: greater
[6]
  induction of anagen: marked induction of anagen
  proliferation in the telogen hair follicle (Ki67) / keratinocyte matrix cells: marked proliferation
Human embryonic scalp
  hair follicle morphology, stage of first anagen of morphogenesis: more advanced
[7]
  IL-15-induced Stat3 (pSTAT3) activation: block; also recorded: inhibits
Dermal sheath cells
  IL-15-induced LAK cell cytotoxic function (dermal sheath cell cytotoxicity): inhibit
[8]
  serum levels: 30 to 40 nM
[9]; 10 mg/kg/day Alzet pump, 5 mice
  development of cutaneous lymphadenopathy: None
[9]
  CD8+NKG2D+ T cells in skin and cutaneous lymph nodes: eliminated; also recorded: prevented
  ALADIN score / transcriptional signature: prevented the emergence
  GEDI (CTL and IFN signatures): prevented the emergence
  development / onset of alopecia areata: prevents and None and prevented and inhibited
[9]; microarray, 13 weeks of treatment vs PBS
  IFN-response chemokines and markers of CD8 cytotoxic effectors in skin: elimination
[9]; mouse, in vivo
  HF NKG2DL expression (e.g. H60 by immunostain): reduced although not completely eliminated
  durability of disease prevention after treatment withdrawal: 12 weeks
  histological signs of inflammation in skin: no histological signs of inflammation
  inflammatory biomarkers in the skin, including MHC molecules and IFN signature: down-regulated
[9]; photomicrographs, FIG. 53
  inflammatory infiltrate: normalizes
[9]; listed as CP690550
  development / onset of alopecia areata: prevention of AA
[10]
  hair regrowth / reversal of alopecia areata: complete
[11]; additional 8 weeks after withdrawal
  disease recurrence after treatment withdrawal: no evidence of disease recurrence
[11]; drug applied to back skin only
  untreated areas on the abdomen: remained alopecic
[11]
  CD8+NKG2D+ T cells in treated skin: disappearance
[11]; mouse, in vivo
  ALADIN transcriptional signature: normalization
  durability of effects after cessation of treatment: 2-3 months
  histological markers of disease: reversal
[11]; topical 0.5% daily
  time to full coat of hair: ≤ 7 weeks
[11]; topical therapy
  time to complete hair regrowth: ≤ 12 weeks
[11]; topical, daily, 0.5%
  reversal of established / long-standing AA: highly effective; also recorded: reversal
IL-15 signaling
  IL-15 signaling: inhibit

## tofacitinib
[6]; mouse, in vivo
  effect on anagen induction compared with SAG: comparable
  time to induction and growth of robust pigmented anagen hairs: 1-2 weeks
[6]
  induction of anagen: striking anagen induction
[9]; listed as JAK3 PTKi
  CD8+NKG2D+ T cells in skin and cutaneous lymph nodes: eliminating expansion
  development / onset of alopecia areata: effectively prevented
[9]; listed as JAK3i
  CD8+NKG2D+ T cells in skin and cutaneous lymph nodes: significantly decreased
[9]; listed as JAK3 inhibitor
  CD8+NKG2D+ T cells in skin and cutaneous lymph nodes: completely eliminated
  development / onset of alopecia areata: do not develop alopecia
[9]; immunohistochemical staining
  expression of CD4, CD8, MHC class I and II in skin: significantly decreased
[9]; mouse, in vivo
  inflammatory biomarkers in the skin, including MHC molecules and IFN signature: ablating
[9]; osmotic pump
  inflammatory profiles (skin microarray, T cell infiltrate stains, serum markers): decreased inflammatory profiles
[9]; osmotic pump, by six weeks following transplantation, PBS 4/4, vehicle pump 2/2
  mice that developed alopecia: 0/5
[9]
  ALADIN score / transcriptional signature: normalization
  GEDI (CTL and IFN signatures): reduction
[10]; listed as JAK3i
  CD8+NKG2D+ T cells in skin and cutaneous lymph nodes: eliminated
  hair regrowth / reversal of alopecia areata: induced hair regrowth all over the body
[10]; listed as JAK3 inhibitor
  CD8+NKG2D+ T cells in skin and cutaneous lymph nodes: elimination; also recorded: devoid
  hair regrowth / reversal of alopecia areata: exhibit hair regrowth
[10]; mouse, in vivo
  persistence of effect after cessation of treatment: 2-3 months
[11]
  CD8+NKG2D+ T cells in treated skin: significantly decreased
[11]; [12]
  pigmentation of regrown hair coat: darkly pigmented
  speed of hair regrowth: very rapid
